From patent publication US20210283107A1, “Methods to Expand the Spectrum of Gram-Positive Antibiotics” (NORTH CAROLINA STATE UNIVERSITY, priority 2016, published 2021)

System: AB5075
Experiment: H33342 accumulation assay (efflux)
Assay type: cell-based, Acinetobacter baumannii
Protocol: In addition to the evaluation of the relationship between compounds 1 and 4 and colistin, the impact of compound 1 on efflux was evaluated using AB5075 and a bisBenzimide H33342 trihydrochloride (H33342) accumulation assay. Using a procedure adapted from Coldham et al. (A 96-well plate fluorescence assay for assessment of cellular permeability and active efflux in Salmonella enterica serovar Typhimurium and Escherichia coli. J Antimicrob Chemother, 2010. 65(8): p. 1655-63) and Richmond et al. (Efflux in Acinetobacter baumannii can be determined by measuring accumulation of H33342 (bis-benzamide). J Antimicrob Chemother, 2013. 68(7): p. 1594-600), the effect of no treatment, a known inhibitor carbonyl cyanide-m-chlorophenyl hydrazone (CCCP), and compound 1 on efflux was analyzed over 30 minutes and in two different treatment variations. Fluorescence was read using excitation and emission filters of 355 and 460 nm, and the values were processed in excel. The first analysis was performed immediately after treating the bacteria with compound 1 at both 10 and 30 μM and CCCP at 25 μM.
The second analysis was performed after exposing the bacteria to compound 1 at 30 μM for 5-hours shaking at 37° C.

In the case of `Nc1nc(-c2ccc(NC(=O)c3cc(Cl)cc(Cl)c3)cc2)c[nH]1` [Compound 1], the “H33342 accumulation, fluorescence at 355 and 460 nm” value (shortened to “H33342 accumulation, fluorescence”) (10 μM compound, immediately following exposure, time 0 minutes) is reported as 14,084.3 ± 2,839.3, the “H33342 accumulation, fluorescence” value (10 μM compound, immediately following exposure, time 10 minutes) is reported as 12,812.4 ± 2,718.2 and the “H33342 accumulation, fluorescence” value (10 μM compound, immediately following exposure, time 20 minutes) is reported as 11,627.8 ± 3,119. The “H33342 accumulation, fluorescence” value (10 μM compound, immediately following exposure, time 30 minutes) was 12,147.8 ± 2,742.8, the “H33342 accumulation, fluorescence” value (30 μM compound, following exposure for 5 hours, time 0 minutes) was 12,226.7 ± 4,671.7 and the “H33342 accumulation, fluorescence” value (30 μM compound, following exposure for 5 hours, time 10 minutes) was 15,247 ± 5,499.3. For the same molecule, the “H33342 accumulation, fluorescence” value (30 μM compound, following exposure for 5 hours, time 20 minutes) was 25,603.1 ± 5,212.9, the “H33342 accumulation, fluorescence” value (30 μM compound, following exposure for 5 hours, time 30 minutes) was 33,441.1 ± 3,260.3 and the “H33342 accumulation, fluorescence” value (30 μM compound, immediately following exposure, time 0 minutes) was 21,152.2 ± 5,161.7. The “H33342 accumulation, fluorescence” value (30 μM compound, immediately following exposure, time 10 minutes) was 21,651 ± 8,731.7, the “H33342 accumulation, fluorescence” value (30 μM compound, immediately following exposure, time 20 minutes) was 19,748.3 ± 9,182.4 and the “H33342 accumulation, fluorescence” value (30 μM compound, immediately following exposure, time 30 minutes) was 19,562.4 ± 9,574. For the same molecule, the “H33342 fluorescence versus untreated” value (after exposure to compound at 30 μM for 5 hours) was “comparable fluorescence values” and the “change in H33342 fluorescence over 30 minutes” value (immediately after treating, compound 1 at both 10 and 30 μM, CCCP at 25 μM) was “a decrease in fluorescence”.
